In patent US20020160968A1, “Inhibitors of cellular niacinamide mononucleotide formation and their use in cancer therapy” (Klinge Pharma GmbH, priority 1999, published 2002):

Legend:
[1] = system: Hep G2 cells; test: Nicotinamide Reversibility Assay / cell growth inhibition of Hep G2 cells (SRB, six days); format: cell-based, human; conditions: for IC50: Homo sapiens, HepG2, 144 h, six days of compound incubation, SRB, read-out: Cell growth inhibition IC50-values [μM] Hep G2
Method: Nicotinamide Reversibility Assay
Hep G2 cells derived from a human liver carcinoma were plated at a density of 20,000 cells/ml in 12-well plastic dishes. Cultivation occurred in Richters IMEM-ZO nutrient medium with 5% fetal calf serum (FCS) in a tissue culture incubator with a gas mixture of 5% CO2 and 95% air at a temperature of 37° C. One day after plating, the culture medium was aspirated from the cells and replaced by fresh medium which contained the respective concentrations of the test compounds and where applicable of the nicotinamide. For the individual concentrations and the controls without test compounds, three-fold batches were done for each. Three days after the beginning of treatment, the medium was again renewed with the test compounds and where applicable the nicotinamide. After six days of compound incubation, the test was ended and the protein amount in the individual wells was determined with the sulforhodamin-B-method (according. to P. Skehan et al.: New Colorimetric Cytotoxicity Assay for Anticancer-Drug Screening. J. Natl. Cancer Inst. 82: 1107-1112, 1990). The IC50-values were taken from the dose-response curves and given as a comparative measurement for the activity of the test compounds.

[2] = system: NAD(P) synthesis from niacinamide in HepG2 cells; test: Determination of NAD(P) synthesis from [14C]niacinamide in HepG2 cells; format: cell-based, human; conditions: for inhibition at 10 µM / activity at 10 µM: Homo sapiens; for inhibition at 10 µM: read-out: Cellular NAD synthesis inhibition [%]; for activity at 10 µM / NAD(P) pmol/10^6 cells / NAD(P) pmol/mg protein: Table 3a, compound 10^-5 M; for activity at 10 µM: read-out: NAD(P) % of Control; for NAD(P) pmol/10^6 cells: 17 hrs pre-incubation, control 302.1; for NAD(P) pmol/mg protein: control 186.4
Description: The effect of the compounds on the synthesis of NAD(P) starting from niacinamide was investigated using for example the tumor cell line HepG2 according to the technique described in the experimental part below.
The inhibition of the NAD(P) synthesis from niacinamide by these compounds was investigated in HepG2 cells as described in the section “Material and Methods”. The compounds of Table 3 a were used at a concentration of 10^−5 M. The compounds of Table 3 b were used at concentrations of at least 10^−5 M, except for Doxorubicin where the concentration was 0.3×10^−5 M. As a control, vehicle treated or untreated cells were used.
In these experiments, a pre-incubation period of 17 hrs with the compounds was used, but it turned out that the pre-incubations period could be shortened, for example to 2 hrs, or skipped completely without affecting the inhibition profile. […] Similar results were obtained with the other specific compounds.
For the detection of specific inhibitors of niacinamide mononucleotide formation the following screening assay is especially useful which comprises the following steps: incubating cultured cells selected from HepG2 cells, U-87 MG cells, MCF-7 M1 cells, Caki-1 cells, HL-60 cells, PC3 cells, U-373 MG cells, A549 cells and KG-1a cells in the presence of [^14C]niacinamide and a compound to be tested for its activity to inhibit the cellular formation of niacinamide mononucleotide; effecting lysis of the cells; isolating and separating the [^14C]-labeled compounds and measuring the amount of formed labeled niacinamide mononucleotide, NAD and NADP. More concretely, cultured cells are seeded in a defined density in culture dishes, followed by incubation in the presence of a test compound and by the addition of [^14C]niacinamide for about 0.1 to 6 hrs. The cells are then lysed with perchloric acid and the resulting extract is neutralized. Finally, the [^14C]-labeled compounds are separated by thin-layer chromatography on cellulose matrices followed by UV detection and autoradiography. Non-radioactive niacinamide derivatives are used as standards. This assay allows simple and effective screening and selection of the compounds according to the invention.
Determination of NAD(P) Synthesis from [^14C]Niacinamide
The cells were detached from 75 cm^2 flasks by removing the growth medium and adding 3 ml trypsin/EDTA solution to each flask. After about 5 minutes incubation at 37° C., when the cells were detached from the surface of the dishes, trypsinization was stopped by adding 3 ml Richter's IMEM-ZO medium containing 10% FCS. The cells were suspended by repeated pipetting. For predilution, an aliquot of 20 μl was added to 10 ml Casyton isotonic solution (No. 043-90037P, Schärfe System, Reutlingen, Germany) using a Sysmex Auto Dilutor Type AD-260 (Toa, Medical Electronics Co. Ltd., Kobe, Japan). The cell number was determined by electronic cell volume measurements and counting with a CASY 1 Cell Counter+Analyzer System, Model TTC (Schärfe System, Reutlingen, Germany) equipped with a 60 μm capillary. Following dilution in IMEM-ZO containing 10% FCS, the cells were finally seeded at a density of 4×10^6/10 ml per sample in Ø 10 cm tissue culture dishes (Greiner, Frickenhausen, Germany) and incubated at 37° C. in a humidified atmosphere of 5% CO2 in air.
After one day, when the cells were adherent to the dishes, the cultures were replenished with IMEM-ZO containing 5% FCS plus the test compound or the vehicle. […] The cells were then incubated at 37° C. for 17 hours in a humidified atmosphere of 5% CO2 in air. This preincubation period is not necessary to achieve a distinct inhibitory action of the compounds and can be shortened for example to 2 or 0 hours. After this period of time, the medium was again discarded and 4 ml HEPES-buffered IMEM-ZO containing the test compound or the vehicle and 0.5 μCi/ml [^14C]niacinamide were added to each culture for an additional 5 hours at 37° C. and 100% humidity. […]

Compound	IC50 ([1]; Hep G2) [µM]	inhibition at 10 µM [2] [%]	activity at 10 µM [2] [%]	NAD(P) pmol/10^6 cells [2] [pmol/10^6 cells]	NAD(P) pmol/mg protein [2] [pmol/mg protein]	Influence of the addition of nicotinamide on the action on cell growth (FIGS. 20 to 27) ([1]; Hep G2)	Reversal by Niacinamide ([1]; Hep G2 cell growth inhibition with added nicotinamide)
NC(Cc1ccc(O)c(N=Nc2ccccc2C(=O)N2CCC(CCCCNC(=O)/C=C/c3cccnc3)CC2)c1)C(=O)O (stereo not shown) [Compound K22408, 2-amino-3-[4-hydroxy-3-(2-{4-[4-(3-pyridine-3-yl-acryloyl-amino)-butyl]-piperidine-1-carbonyl}-phenylazo)-phenyl]-propanoic acid trihydrate]	0.2	98	1.6	4.9	3.0	–	–
O=C(NCCCCC1CCN(S(=O)(=O)c2ccc3ccccc3c2)CC1)Nc1cccnc1 [Compound K22365, 1-{4-[1-(naphthalene-2-sulfonyl)-piperidine-4-yl)-butyl}-3-pyridine-3-yl-urea]	0.6	92	–	–	–	–	–
O=C(NCCCCC1CCN(C(=O)N2c3ccccc3CCc3ccccc32)CC1)Nc1cccnc1 [Compound K22387, 1-{4-[1-(1,11-dihydro-dibenzene[b,f]azepine-5-carbonyl)-piperidine-4-yl]-butyl}-3-pyridine-3-yl-urea]	0.002	99	0.9	2.6	1.6	can be antagonized	yes
Cn1c(CCNC(=O)/C=C/c2cccnc2)ccc1CN1CCN(C(c2ccccc2)c2ccccc2)CC1 [Compound K22350, N-{2-[5-(4-benzhydryl-piperazine-1-yl-methyl)-1-methyl-1H-pyrrole-2-yl]-ethyl}-3-pyridine-3-yl-acrylamide]	0.7	99	0.9	2.7	1.7	–	–
